In brackets after ≈: the same amount, converted by molar mass. Like-named read-outs stand apart in the source and are kept apart here.
How the values were obtained:
S. aureus (MRSA) MW2 = test: Minimal inhibitory concentration (MIC) assay, micro-dilution; assay type: cell-based; details: for MIC: Staphylococcus aureus
Method in brief: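 Strains were grown at 37° C (S. aureus in TSB, E. faecium in BHI broth). MICs were then determined by standard CLSI broth micro-dilution. Each assay was repeated in biological triplicate.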

HKC-8 = test: Cytotoxicity (WST-1); assay type: cell-based; details: 32 μg/ml
Experimental: (§1) Cytotoxicity. […] HepG2 and HKC-8 cells were grown in Dulbecco's modified Eagle F-12 media mixed 1:1 with Ham's F-12 (DMEM/F-12, Life Technologies, Carlsbad, Calif., USA) supplemented with 10% FBS and 4 mM L-glutamine at 37° C. in 5% CO2. For cytotoxicity assays, HepG2 or HKC-8 was cultured in 96-well plates in 100 μL/well of the proper media to reach 70-80% confluence. The cells were then treated with a range of concentrations of nTZDpa or its analogs for 72 h. 10 μL of WST-1 (Roche, Mannheim, Germany) was added per well for the last 4 h of the 72 h period. WST-1 reduction was measured at absorbance 450 nm. The percent […] relative to that of the no-treatment control was calculated. The assay was carried out in biological triplicate.

HepG2 = test: Cytotoxicity (WST-1); assay type: cell-based; details: 32 μg/ml
Experimental: as §1

MRSA MW2 [1] = test: Deep-seated mouse thigh infection model; assay type: in vivo; details: 5 days
Experimental: Deep-seated mouse thigh infection model. In vivo efficacy of nTZDpa alone or in combination with gentamicin against MRSA persisters was evaluated by a previously described neutropenic mouse thigh infection model with modifications. Six-week-old female CD-I mice (20-25 g, Charles River Laboratories, Wilmington, Mass., USA) were obtained from Charles River Laboratories (Wilmington, Mass., USA). The CD-I mice were rendered neutropenic by administering 150 mg/kg and 100 mg/kg of cyclophosphamide intraperitoneally (i.p.) at 4 days and 1 day before infection, respectively. On the day of infection, overnight culture of MRSA MVV2 was washed 3-time with sterile saline and diluted to 10^7 CFU/ml in the saline. 50 μl of the diluted culture (5×10^5 CFU per mouse) was injected to the right thigh of each mouse. nTZDpa was dissolved in Kolliphor EL (Sigma-Aldrich, St Louis, Mo., USA)/ethanol 1:1 and then diluted 1:10 in saline to a final concentration of 50 mg/kg. At 24 h post-infection, groups of mice (n=10) were treated with 30 mg/kg gentamicin subcutaneously (s.c.) every 12 h, 25 mg/kg vancomycin i.p. every 24 h, 50 mg/kg nTZPpa i.p. every 24 h, or the combination of 50 mg/kg nTZDpa i.p. every 24 h and 30 mg/kg gentamicin s.c. every 12 h for 5 days. Control mice were injected with 250 μl of 10% Kolliphor EL/ethanol in saline i.p. every 24 h for 5 days. Mice were euthanized at 96 h post-infection. Blood was collected by cardiac puncture, and the infected thighs were aseptically excised, weighed, and stored at 4° C. until homogenization. To evaluate hepatic and renal toxicities, the levels of alanine aminotransferase and blood urea nitrogen were analyzed with commercially available kits, following the manufacturer's protocol (Pointe Scientific, Canton, Mich., USA). Thighs were homogenized in PBS, serially diluted with PBS, and spot-plated on TSA plates. […] Statistical significance among each group was analyzed by one-way ANOVA with post-hoc Tukey test using PASW Statistics 18 (SPSS Inc. Chicago, Ill., USA).

[2] = Hepatic and renal toxicities (serum ALT, BUN) in the mouse thigh infection model; details: 5 days
Experimental: Deep-seated mouse thigh infection model. In vivo efficacy of nTZDpa alone or in combination with gentamicin against MRSA persisters was evaluated by a previously described neutropenic mouse thigh infection model with modifications. Six-week-old female CD-I mice (20-25 g, Charles River Laboratories, Wilmington, Mass., USA) were obtained from Charles River Laboratories (Wilmington, Mass., USA). The CD-I mice were rendered neutropenic by administering 150 mg/kg and 100 mg/kg of cyclophosphamide intraperitoneally (i.p.) at 4 days and 1 day before infection, respectively. On the day of infection, overnight culture of MRSA MVV2 was washed 3-time with sterile saline and diluted to 10^7 CFU/ml in the saline. 50 μl of the diluted culture (5×10^5 CFU per mouse) was injected to the right thigh of each mouse. nTZDpa was dissolved in Kolliphor EL (Sigma-Aldrich, St Louis, Mo., USA)/ethanol 1:1 and then diluted 1:10 in saline to a final concentration of 50 mg/kg. At 24 h post-infection, groups of mice (n=10) were treated with 30 mg/kg gentamicin subcutaneously (s.c.) every 12 h, 25 mg/kg vancomycin i.p. every 24 h, 50 mg/kg nTZPpa i.p. every 24 h, or the combination of 50 mg/kg nTZDpa i.p. every 24 h and 30 mg/kg gentamicin s.c. every 12 h for 5 days. Control mice were injected with 250 μl of 10% Kolliphor EL/ethanol in saline i.p. every 24 h for 5 days. Mice were euthanized at 96 h post-infection. Blood was collected by cardiac puncture, and the infected thighs were aseptically excised, weighed, and stored at 4° C. until homogenization. To evaluate hepatic and renal toxicities, the levels of alanine aminotransferase and blood urea nitrogen were analyzed with commercially available kits, following the manufacturer's protocol (Pointe Scientific, Canton, Mich., USA). Thighs were homogenized in PBS, serially diluted with PBS, and spot-plated on TSA plates. After incubating the TSA plates at 37° C. overnight, the number of colonies were enumerated to calculate CFU/g thigh tissue. This study and all experiments were performed in accordance with guidelines approved by the Rhode Island Hospital Institutional Animal Care and Use Committee (RIH IACUC). Statistical significance among each group was analyzed by one-way ANOVA with post-hoc Tukey test using PASW Statistics 18 (SPSS Inc. Chicago, Ill., USA).

MRSA MW2 [3] = test: SYTOX Green membrane permeability assay; assay type: cell-based, S. aureus
Experimental: SYTOX Green membrane permeability assay. […] The washed cells were adjusted to OD600=0.4 with PBS. SYTOX Green (Molecular Probes, Waltham, Mass., USA) was added to 10 mL of the diluted bacterial suspension to a final concentration of 5 μM and incubated for 30 min at room temperature in the dark. 50 μL of the bacteria/SYTOX Green suspension was mixed with 50 μl of PBS containing twice the desired concentrations of compounds in black, clear-bottom, 96-well plates (Corning no. 3904). Fluorescence was measured at room temperature using a spectrophotometer (SpectraMax M2, Molecular Devices), with excitation and emission wavelengths of 485 nm and 525 nm, respectively. All experiments were conducted in biological triplicate.

MRSA MW2 [4] = test: Transmission electron microscopy; details: 4× MIC for 2 h
K. pneumoniae WGLW2 = test: MIC assay; assay type: cell-based, Klebsiella pneumoniae; details: Klebsiella pneumoniae; K. pneumoniae WGLW2; read-out: Minimum inhibitory concentration
Excerpt: Bacterial strains, growth conditions, and persister isolation. Methicillin-resistant S. aureus strains, MW2 BAA-1707, ATCC 33591, and JE2, methicillin-susceptible S. aureus strains, NCTC 8325, Newman, and ATCC 29213, vancomycin-resistant S. aureus strain, VRS1, Enterococcus faecium E007, vancomycin-resistant E. faecium strains, C68,^7 WB312, and WC196, Klebsiella pneumoniae WGLW2 (BEI Resources, Manassas, Va., USA), Acinetobacter baumannii ATCC 17978, Pseudomonas aeruginosa PA14, and Enterobacter aerogenes ATCC 13048 were used to test antimicrobial activity (Table 1). S. aureus strains were grown in tryptic soy broth (TSB) (BD, Franklin Lakes, N.J., USA), and E. faecium was grown in brain-heart infusion (BHI) broth (BD, Franklin Lakes, N.J., USA) at 37° C. K. pneumoniae, A. baumannii, P. aeruginosa, and E. aerogenes were grown in Luria Bertani (LB) broth (BD, Franklin Lakes, N.J., USA) at 37° C.
Minimal inhibitory concentration (MIC) assay. The MICS of antibiotics were determined by the standard micro-dilution method recommended by the Clinical and Laboratory Standards Institute. MIC assays were conducted in biological triplicate.

[5] = nTZDpa 50 mg/kg with gentamicin 30 mg/kg

O=C(O)c1c(Sc2ccccc2)c2cc(Cl)ccc2n1Cc1ccc(Cl)cc1 [nTZDpa]
MIC (S. aureus (MRSA) MW2; S. aureus (MRSA) MW2, read-out: Minimum inhibitory concentration): 4 µg/mL (≈ 9.34 µM) | MIC (S. aureus (MRSA) MW2; Table 3, growing MRSA, read-out: MIC): 4 µg/mL (≈ 9.34 µM) | MIC relative to MIC of vancomycin (S. aureus (MRSA) MW2; fold higher): 4 fold | cell death of HKC-8 (HKC-8): ~16% | cell death of HepG2 (HepG2): ~30% | persister cells killed in thigh (MRSA MW2 [1]; 50 mg/kg nTZDpa i.p. with 30 mg/kg gentamicin s.c., p<0.001): ~95% | MRSA CFUs / viability of persisters in thigh, single agent (MRSA MW2 [1]; vancomycin 25 mg/kg i.p., gentamicin 30 mg/kg s.c., nTZDpa 50 mg/kg i.p.): no effect on the viability of persisters | BUN [2, 5]: not increasing ALT or BUN | serum ALT [2, 5]: not increasing ALT or BUN | BUN ([2]; nTZDpa alone 50 mg/kg i.p.): did not increase serum levels of ALT or BUN | serum ALT ([2]; nTZDpa alone 50 mg/kg i.p.): did not increase serum levels of ALT or BUN | concentration of maximum SYTOX Green fluorescence (MRSA MW2 [3]): 16 µg/mL | cell morphology by TEM (MRSA MW2 [4]): formation of mesosome-like structures in most cells, abnormal cell division, and cell lysis | MIC (K. pneumoniae WGLW2): > 64 µg/mL

Source: patent US11690824B2, “Antibacterial compounds” (THE GENERAL HOSPITAL CORPORATION, priority 2018, dated 2023)
